#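 Compound exposure: 48 hours, 5 concentrations, 96-well plates. Abbreviation: GI50, concentration required for 50% inhibition of growth.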 Active and inactive are the calls of the source. Rule as the data show it: active = GI50 up to about 1.1 µM and inactive = higher.
# Assays:
# Test in all cases: NCI anticancer screen, dose series, 48 h
# SK-OV-3 = system: SK-OV-3
# ACHN = system: ACHN
# KM12 = system: KM12
# UO-31 = system: UO-31
# OVCAR-3 = system: OVCAR-3
# SF-295 = system: SF-295
# SNB-75 = system: SNB-75
# OVCAR-5 = system: OVCAR-5
# MOLT-4 = system: MOLT-4
# HOP-92 = system: HOP-92
# U-251 = system: U-251
# MCF7 = system: MCF7
# NCI-H522 = system: NCI-H522
# SW-620 = system: SW-620
# HCT-15 = system: HCT-15
# IGROV-1 = system: IGROV-1
# 786-0 = system: 786-0
# MDA-MB-231 = system: MDA-MB-231
# HCC 2998 = system: HCC 2998
# SK-MEL-2 = system: SK-MEL-2
# NCI-H460 = system: NCI-H460
# CCRF-CEM = system: CCRF-CEM
# SR = system: SR
# M14 = system: M14
# A549 = system: A549
# NCI-H23 = system: NCI-H23
# PC-3 = system: PC-3
# EKVX = system: EKVX
# SK-MEL-5 = system: SK-MEL-5
# HCT-116 = system: HCT-116
# CAKI-1 = system: CAKI-1
# SF-539 = system: SF-539
# SF-268 = system: SF-268
# HOP-62 = system: HOP-62
# HT-29 = system: HT-29
# MDA-N = system: MDA-N
# COLO 205 = system: COLO 205
# T47D = system: T47D
# SK-MEL-28 = system: SK-MEL-28
# OVCAR-8 = system: OVCAR-8
# NCI-H226 = system: NCI-H226
# BT-549 = system: BT-549
# SN12C = system: SN12C
# NCI/ADR-RES = system: NCI/ADR-RES
# HL-60 = system: HL-60
# Hs-578T = system: Hs-578T
# OVCAR-4 = system: OVCAR-4
# LOX IMVI = system: LOX IMVI
# RPMI-8226 = system: RPMI-8226
# TK-10 = system: TK-10
# SNB-19 = system: SNB-19
# UACC-62 = system: UACC-62
# Malme-3M = system: Malme-3M
# MDA-MB-435 = system: MDA-MB-435
# A498 = system: A498
# DU-145 = system: DU-145
# RXF 393 = system: RXF 393
# UACC-257 = system: UACC-257
# K562 = system: K562
structure (smiles),measurement,setting,value
CSc1nc(SC)c2c(CO)c(Br)n(Cc3ccccc3)c2n1,GI50,SK-OV-3,20.2 µM (inactive)
same,GI50,ACHN,15.3 µM (inactive)
same,GI50,KM12,70 µM (inactive)
same,GI50,UO-31,12.7 µM (inactive)
same,GI50,OVCAR-3,29.5 µM (inactive)
same,GI50,SF-295,20.7 µM (inactive)
same,GI50,SNB-75,13.6 µM (inactive)
same,GI50,OVCAR-5,56.9 µM (inactive)
same,GI50,MOLT-4,> 100 µM (inactive)
same,GI50,HOP-92,17.2 µM (inactive)
same,GI50,U-251,12.6 µM (inactive)
same,GI50,MCF7,24.6 µM (inactive)
same,GI50,NCI-H522,14.2 µM (inactive)
same,GI50,SW-620,> 100 µM (inactive)
same,GI50,HCT-15,70 µM
same,GI50,IGROV-1,16 µM (inactive)
same,GI50,786-0,18.7 µM (inactive)
same,GI50,MDA-MB-231,17.7 µM (inactive)
same,GI50,HCC 2998,43.3 µM (inactive)
same,GI50,SK-MEL-2,25.7 µM (inactive)
same,GI50,NCI-H460,15.7 µM (inactive)
same,GI50,CCRF-CEM,> 100 µM (inactive)
same,GI50,SR,> 100 µM (inactive)
same,GI50,M14,83.2 µM (inactive)
same,GI50,A549,29.8 µM (inactive)
same,GI50,NCI-H23,30.7 µM (inactive)
same,GI50,PC-3,43.1 µM (inactive)
same,GI50,EKVX,29.2 µM (inactive)
same,GI50,SK-MEL-5,48.9 µM (inactive)
same,GI50,HCT-116,26.4 µM (inactive)
same,GI50,CAKI-1,10 µM (inactive)
same,GI50,SF-539,12.2 µM (inactive)
same,GI50,SF-268,16.3 µM (inactive)
same,GI50,HOP-62,27 µM (inactive)
same,GI50,HT-29,33.8 µM (inactive)
same,GI50,MDA-N,> 100 µM (inactive)
same,GI50,COLO 205,> 100 µM (inactive)
same,GI50,T47D,14.9 µM (inactive)
same,GI50,SK-MEL-28,47.9 µM (inactive)
same,GI50,OVCAR-8,18 µM (inactive)
same,GI50,NCI-H226,11.3 µM (inactive)
same,GI50,BT-549,21.6 µM (inactive)
same,GI50,SN12C,35.4 µM (inactive)
same,GI50,NCI/ADR-RES,24.7 µM (inactive)
same,GI50,HL-60,> 100 µM (inactive)
same,GI50,Hs-578T,19.1 µM (inactive)
same,GI50,OVCAR-4,16.1 µM (inactive)
same,GI50,LOX IMVI,25.3 µM (inactive)
same,GI50,RPMI-8226,92.9 µM (inactive)
same,GI50,TK-10,21.8 µM (inactive)
same,GI50,SNB-19,29 µM (inactive)
same,GI50,UACC-62,17.5 µM (inactive)
same,GI50,Malme-3M,52.4 µM (inactive)
same,GI50,MDA-MB-435,> 100 µM (inactive)
same,GI50,A498,4.32 µM (inactive)
same,GI50,DU-145,25.9 µM (inactive)
same,GI50,RXF 393,28 µM (inactive)
CCOC(=O)c1cc(C2=CCNC2=O)c(-c2cc(C)no2)[nH]1,GI50,SK-OV-3,31.3 µM (inactive)
same,GI50,ACHN,52.1 µM (inactive)
same,GI50,KM12,59.8 µM (inactive)
same,GI50,UO-31,27.7 µM (inactive)
same,GI50,OVCAR-3,45.6 µM (inactive)
same,GI50,SF-295,29.8 µM (inactive)
same,GI50,SNB-75,34 µM (inactive)
same,GI50,OVCAR-5,> 100 µM (inactive)
same,GI50,MOLT-4,25.1 µM (inactive)
same,GI50,U-251,62.5 µM (inactive)
same,GI50,MCF7,70 µM (inactive)
same,GI50,NCI-H522,16.7 µM (inactive)
same,GI50,SW-620,80.2 µM (inactive)
same,GI50,HCT-15,92.9 µM
same,GI50,IGROV-1,75.3 µM (inactive)
same,GI50,786-0,40 µM (inactive)
same,GI50,MDA-MB-231,36.4 µM (inactive)
same,GI50,HCC 2998,> 100 µM (inactive)
same,GI50,SK-MEL-2,> 100 µM (inactive)
same,GI50,NCI-H460,63.4 µM (inactive)
same,GI50,CCRF-CEM,34 µM (inactive)
same,GI50,SR,33.2 µM (inactive)
same,GI50,M14,51.1 µM (inactive)
same,GI50,A549,37.4 µM (inactive)
same,GI50,NCI-H23,> 100 µM (inactive)
same,GI50,PC-3,55.6 µM (inactive)
same,GI50,EKVX,59.4 µM (inactive)
same,GI50,SK-MEL-5,66.7 µM (inactive)
same,GI50,HCT-116,31.1 µM (inactive)
same,GI50,UACC-257,> 100 µM (inactive)
same,GI50,CAKI-1,> 100 µM (inactive)
same,GI50,SF-539,> 100 µM (inactive)
same,GI50,SF-268,> 100 µM (inactive)
same,GI50,HOP-62,73.3 µM (inactive)
same,GI50,HT-29,43.5 µM (inactive)
same,GI50,MDA-N,94.6 µM (inactive)
same,GI50,COLO 205,54.8 µM (inactive)
same,GI50,T47D,30.8 µM (inactive)
same,GI50,SK-MEL-28,92.5 µM (inactive)
same,GI50,OVCAR-8,45 µM (inactive)
same,GI50,NCI-H226,> 100 µM (inactive)
same,GI50,BT-549,> 100 µM (inactive)
same,GI50,SN12C,> 100 µM (inactive)
same,GI50,NCI/ADR-RES,30.5 µM (inactive)
same,GI50,HL-60,22.3 µM (inactive)
same,GI50,K562,34.8 µM (inactive)
same,GI50,Hs-578T,95.5 µM (inactive)
same,GI50,OVCAR-4,49.5 µM (inactive)
same,GI50,LOX IMVI,86.5 µM (inactive)
same,GI50,RPMI-8226,36.7 µM (inactive)
same,GI50,TK-10,> 100 µM (inactive)
same,GI50,SNB-19,> 100 µM (inactive)
same,GI50,UACC-62,39.1 µM (inactive)
same,GI50,Malme-3M,> 100 µM (inactive)
same,GI50,MDA-MB-435,> 100 µM (inactive)
same,GI50,A498,> 100 µM (inactive)
same,GI50,DU-145,> 100 µM (inactive)
same,GI50,RXF 393,49.2 µM (inactive)

# Source: ChEMBL document CHEMBL1201862, “PubChem BioAssay data set” (2004)
